The source of these data is patent publication US20070043076A1, “Substituted 2-arylmethylene-n-aryl-n'aryl-malonamides and analogs as activators of caspases and inducers of apoptosis” (priority 2003, published 2007).

Read-outs that look alike come from different tables or passages of the source.

The subject of one experiment is T-47D. The experiment in a line: Caspase cascade activation (Ac-DEVD-R110 fluorogenic substrate) in T-47D cells. Format: cell-based, Human. Conditions: 24 h incubation; for Caspase Activity Ratio: ratio of net RFU to that of control samples; for EC50: 0.16 to 10 μM final, read-out: Caspase potency EC50. As to the method: (§1) Human breast cancer cell lines T-47D and ZR-75-1 were grown according to media component mixtures designated by American Type Culture Collection +10% FCS (Invitrogen Corporation), in a 5% CO2-95% humidity incubator at 37° C. T-47D and ZR-75-1 cells were maintained at a cell density between 30 and 80% confluency and for HL-60 at a cell density of 0.1 to 0.6×10^6 cells/mL. Cells were harvested at 600×g and resuspended at 0.65×10^6 cells/mL into appropriate media +10% FCS. An aliquot of 45 μL of cells was added to a well of a 96-well microtiter plate containing 5 μL of a 10% DMSO in RPMI-1640 media solution containing 1.6 to 100 μM of N,N′-bis-(3-trifluoromethyl-phenyl)-2-(4-isopropyl-benzylidene)-malonamide or other test compound (0.16 to 10 μM final). An aliquot of 45 μL of cells was added to a well of a 96-well microtiter plate containing 5 μL of a 10% DMSO in RPMI-1640 media solution without test compound as the control sample. The samples were mixed by agitation and then incubated at 37° C. for 24 h in a 5% CO2-95% humidity incubator. After incubation, the samples were removed from the incubator and […] of a solution containing 20 μM of N-(Ac-DEVD)-N′-ethoxycarbonyl-R110 fluorogenic substrate (SEQ ID NO:1) (Cytovia, Inc.; U.S. Pat. No. 6,335,429), 20% sucrose (Sigma), 20 mM DTT (Sigma), 200 mM NaCl (Sigma), 40 mM Na PIPES buffer pH 7.2 (Sigma), and 500 μg/mL lysolecithin (Calbiochem) was added. The samples were mixed by agitation and incubated at room temperature. Using a fluorescent plate reader (Model 1420 Wallac Instruments), an initial reading (T=0) was made approximately 1-2 min after addition of the substrate solution, employing excitation at 485 nm and emission at 530 nm, to determine the background fluorescence of the control sample. After approximately 3 h of incubation, the samples were read for fluorescence as above (T=3 h).
(§2) The relative Fluorescence Unit values (RFU) were used to calculate the sample readings as follows: RFU(T=3h)−Control RFU(T=0)=Net RFU(T=3h)
(§3) The activity of caspase cascade activation was determined by the ratio of the net RFU value for N,N′-bis-(3-trifluoromethyl-phenyl)-2-(4-isopropyl-benzylidene)-malonamide to that of control samples. The EC50 (nM) was determined by a sigmoidal dose-response calculation (Prism 2.0, GraphPad Software Inc.).

For the next experiment, the system named is ZR-75-1. The experiment in a line: Caspase cascade activation (Ac-DEVD-R110 fluorogenic substrate) in ZR-75-1 cells. Conditions: 24 h incubation; for Caspase Activity Ratio: ratio of net RFU to that of control samples; for EC50: 0.16 to 10 μM final, read-out: Caspase potency EC50. Format: cell-based, Human. As for the experimental part:
as §1, §2, §3

The EC50 is the concentration that produces a half-maximal response. For `COc1cccc(NC(=O)C(=Cc2ccc(C(F)(F)F)cc2)C(=O)Nc2cccc(OC)c2)c1` [Example 1, N,N′-Bis-(3-methoxy-phenyl)-2-(4-trifluoromethyl-benzylidene)-malonamide], the entries for the “Caspase Activity Ratio” value in the experiment on T-47D and in the experiment on ZR-75-1 were 28 and 14, respectively. The EC50 in the experiment on T-47D (Homo sapiens, T47D) was determined as 2.85 µM; with ZR-75-1 (Homo sapiens), 5.5 µM.

On to `O=C(Nc1cccc(C(F)(F)F)c1)C(=Cc1ccco1)C(=O)Nc1cccc(C(F)(F)F)c1` [Example 4, N,N′-Bis-(3-trifluoromethyl-phenyl)-2-furan-2-yl-methylene-malonamide], for which the EC50 was found to be 5.75 µM in the experiment with T-47D and 5.6 µM with ZR-75-1. Besides, the “Caspase Activity Ratio” value is 28 in the experiment on T-47D and 6 in the experiment on ZR-75-1.

On to `Cc1ccc(C=C(C(=O)Nc2cccc(C(F)(F)F)c2)C(=O)Nc2cccc(C(F)(F)F)c2)c(C)c1` [Example 5, N,N′-Bis-(3-trifluoromethyl-phenyl)-2-(2,4-dimethyl-benzylidene)-malonamide], for which the “Caspase Activity Ratio” value in the experiment with T-47D is 30; in the experiment on ZR-75-1, 26. Besides, the EC50 was determined as 1.9 µM in the experiment with T-47D (Homo sapiens, T47D) and 5.4 µM in the experiment with ZR-75-1 (Homo sapiens).

For `COc1ccc(C=C(C(=O)Nc2cccc(C(F)(F)F)c2)C(=O)Nc2cccc(C(F)(F)F)c2)c(OC)c1` [Example 6, N,N′-Bis-(3-trifluoromethyl-phenyl)-2-(2,4-dimethoxy-benzylidene)-malonamide], the “Caspase Activity Ratio” value with T-47D and with ZR-75-1 was 1 throughout. Besides, the EC50 in the experiment with T-47D (Homo sapiens, T47D) was above 10 µM; with ZR-75-1 (Homo sapiens), above 10 µM.

For the compound `CC(C)c1ccc(CC(C(=O)Nc2cccc(C(F)(F)F)c2)C(=O)Nc2cccc(C(F)(F)F)c2)cc1` [Example 7, N,N′-Bis-(3-trifluoromethyl-phenyl)-2-(4-isopropyl-benzyl)-malonamide], the “Caspase Activity Ratio” value in the experiment with T-47D is 1; with ZR-75-1, 2.2. Moreover, the EC50 in the experiment on T-47D (Homo sapiens, T47D) was above 10 µM; in the experiment with ZR-75-1 (Homo sapiens), 1.7 µM.

Take `CC(C)c1ccc(C=C(C(=O)Nc2ccccc2)C(=O)Nc2ccccc2)cc1` [Example 10, N,N′-Diphenyl-2-(4-isopropyl-benzylidene)-malonamide]: the results for the “Caspase Activity Ratio” value in the experiment on T-47D and with ZR-75-1 were 16 and 2.5, respectively. Also, the EC50 came to 5.79 µM with T-47D (Homo sapiens, T47D) and 4.5 µM in the experiment on ZR-75-1 (Homo sapiens).

As to `CC(C)c1ccc(C=C(C(=O)Nc2ccccc2C(F)(F)F)C(=O)Nc2ccccc2C(F)(F)F)cc1` [Example 11, N,N′-Bis-(2-trifluoromethyl-phenyl)-2-(4-isopropyl-benzylidene)-malonamide], the “Caspase Activity Ratio” value in the experiment on T-47D and with ZR-75-1 was 1 each time. Also, the EC50 is above 10 µM in the experiment with T-47D (Homo sapiens, T47D) and above 10 µM with ZR-75-1 (Homo sapiens).

Take `CC(C)c1ccc(C=C(C(=O)Nc2ccc(C(F)(F)F)cc2)C(=O)Nc2ccc(C(F)(F)F)cc2)cc1` [Example 12, N,N′-Bis-(4-trifluoromethyl-phenyl)-2-(4-isopropyl-benzylidene)-malonamide]: the “Caspase Activity Ratio” value in the experiment on T-47D and with ZR-75-1 was 1 in each case. Also, the EC50 was above 10 µM with T-47D (Homo sapiens, T47D) and above 10 µM with ZR-75-1 (Homo sapiens).

For `COc1cccc(NC(=O)C(=Cc2ccc(C(C)C)cc2)C(=O)Nc2cccc(OC)c2)c1` [Example 13, N,N′-Bis-(3-methoxy-phenyl)-2-(4-isopropyl-benzylidene)-malonamide], the “Caspase Activity Ratio” value in the experiment with T-47D is recorded as 21; in the experiment with ZR-75-1, 4.5. Also, the EC50 was 2.89 µM in the experiment on T-47D (Homo sapiens, T47D) and 5.5 µM with ZR-75-1 (Homo sapiens).
